Measurements taken from US5268361A, “Hydroxyazido derivatives and related compounds as renin inhibitors” (SRI International, priority 1991, dated 1993).

How the values were obtained:
[1] = animals; from cited publications; cited from earlier work
human kidney renin = target: T1, human kidney renin (Homo sapiens, UniProt P00797); experiment: Human renin enzyme assay with angiotensin I radioimmunoassay; assay type: biochemical; details: angiotensinogen substrate, pH 6.0 maleate buffer, 37° C., 50% reduction in the release of angiotensin I
T1 construct: 0.24 mGU human kidney renin; from tissue; host or cells: human kidney
T1 sequence (P00797 67-406): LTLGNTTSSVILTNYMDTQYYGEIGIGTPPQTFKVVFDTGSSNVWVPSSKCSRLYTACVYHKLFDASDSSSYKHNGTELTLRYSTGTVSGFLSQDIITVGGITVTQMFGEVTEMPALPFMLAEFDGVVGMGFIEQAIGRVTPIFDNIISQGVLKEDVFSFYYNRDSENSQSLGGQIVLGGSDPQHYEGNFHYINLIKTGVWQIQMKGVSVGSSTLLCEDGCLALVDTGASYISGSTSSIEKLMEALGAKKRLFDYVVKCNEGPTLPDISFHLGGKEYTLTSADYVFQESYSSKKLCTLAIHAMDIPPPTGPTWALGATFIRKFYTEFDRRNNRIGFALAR
Procedure: a. Human Renin Enzyme Assay. The human renin enzyme assay described by Sham et al., J. Med. Chem. 31:284-295 (1988) was carried out by mixing 0.24 mGU human kidney renin, 0.21 αμM of angiotensinogen in 0.135 M, pH 6.0, maleate buffer containing 3 mM EDTA, 1.4 mM PMSF, and 0.44% BSA. The total assay volume was 100 μl. All inhibitors were dissolved in DMSO first and diluted with 0.5% BSA to give the appropriate concentrations for testing. The final DMSO concentration in the assay mixture was kept constant at 1%. […] For assay, 90 μl of the above-mentioned maleate buffer containing the renin and inhibitor was preincubated at 37° C. for 5 min and the reaction was continued for 10 additional min after adding 10 μl of substrate. The reaction was stopped by immersion of all tubes in a dry ice acetone-methanol bath. All samples were thawed to 0.4° C. and an aliquot from each tube was taken for the Angiotensin I RIA assay.
b. Angiotensin I Radioimmunoassay. A 100 μl portions of 5% BSA containing a small aliquot of the above enzyme mixture was mixed with 100 μl of angiotensin I [^125 I] (500 mCi/mg) in 0.1M Tris-acetate buffer, pH 7.4 (one part angiotensin I in 50 parts buffer), and 500 μl of antiserum (the lyophilized powder was reconstituted with 125 ml of 0.1M Tris-acetate buffer, pH 7.4). The mixture was incubated at 4° C. for 18 to 24 h. At the end of the incubation, 1.0 mL of charcoal suspension (600 mg of charcoal in 50 mL of 0.1M Tris-acetate buffer, pH 7.4) was pipetted into each tube. The charcoal suspension was stirred constantly during the transfer. The samples were mixed and then centrifuged at 3000×g for 15 min. The supernatants were transferred into properly numbered tubed for gamma counting.
A reagent blank was carried out with each assay. The blank tube contained 100 μl of 5% bovine serum albumin (BSA), 100 μl of angiotensin I [^125 I], and 500 μl of 0.1M Tris-acetate buffer.
A standard curve was prepared with each set of experiments by mixing various amounts (5 to 0.1 ng/ml) of angiotensin I in 0.1M Tris-acetate buffer containing 5% BSA and the same amounts of ^125 I-angiotensin I and antiserum as for the RIA assay. The tubes containing the standards were treated exactly like those containing the samples. The amount of angiotensin I produced by the enzyme in each sample was calculated using an angiotensin I standard curve.
The whole process of RIA was carried out at 0° to 4° C. to avoid deterioration of antiserum and angiotensin I. Only polystyrene tubes were used. Polystyrene tubes had shown no affinity for antibody under the assay conditions described above.
An IC50 was calculated for each inhibitor tested by conducting the assay in the presence of different concentrations of inhibitor. The inhibitor concentration that caused a 50% reduction in the release of angiotensin I when compared to control (no inhibitor) values was then calculated.

Cynomolgus monkeys = experiment: In vivo efficacy: oral administration to Cynomolgus monkeys, blood pressure monitoring; details: salt-depleted, furosemide-pretreated male Cynomolgus monkeys; oral gavage 1.0 mg/kg
Procedure: b. In vivo efficacy: Oral activity of a number of the compounds of the invention was established by administration to Cynomolgus monkeys, a species known to be susceptible to the antihypertensive effect of renin inhibition. Two male monkeys, young adults approximately 3-6 kg at dosing, were tested over a six-week period. The animal room environment and photoperiod were controlled (temperature approximately 24° C., humidity 50±20%, 12 h light, 12 h dark), as was diet (low salt primate chow, plus discretionary supplements of fruit for at least 7 days prior to dosing). A diuretic (furosemide 1 mg/kg) was given daily by intravenous injection for 7 days prior to dosing.
The compounds of the invention were dissolved in 0.02 N HCl and prepared to the appropriate volume with sterile water. The pH of the solutions were adjusted to approximately 4.0 with 0.02 N NaOH. The solutions were then given orally by an oesophageal gavage at a dose level of 1.0 mg/kg, and a dose volume of 2 mL/kg body weight.
Prior to and following dosing, the animals were connected to an ECG and blood pressure monitor. Systolic, diastolic and mean blood pressure as well as heart rate were measured at 30 second intervals and recorded.

COc1ccc(C[C@H](NC(=O)CC(C)(C)N)C(=O)N[C@@H](Cc2cnc[nH]2)C(=O)N[C@@H](CC2CCCCC2)[C@@H](O)[C@@H](O)CC(C)C)cc1 [Compound A-64662]
Oral activity [1]: orally active in animals

CC(C)CC(N=[N+]=[N-])C(O)[C@H](CC(C)C)NC(=O)[C@H](Cc1c[nH]cn1)NC(=O)[C@H](Cc1cccc2ccccc12)NC(=O)OCc1ccccc1 (stereo partly drawn) [Compound I-5b, 4-Azido-6-(S)-[N^α -[N-benzyloxycarbonyl-3-(1-naphthyl)-L-alanyl]-L-histidyl]-amino-2,8-dimethyl-5-nonanol]
IC50 (human kidney renin): 190 nM

CC(C)C[C@H](N=[N+]=[N-])[C@H](O)[C@H](CC1CCCCC1)NC(=O)[C@H](Cc1c[nH]cn1)NC(=O)[C@H](Cc1ccccc1)NC(=O)N1CCOCC1 [Compound V-4, (4S, 5R, 6S)-4-Azido-7-cyclohexyl-5-hydroxy-2-methyl-6-[N^α -(N-(morpholino-N-carbonyl)L-phenylalanyl)-L-histidyl]aminoheptane]
IC50 (human kidney renin): 0.58 nM

CC(C)C[C@H](N=[N+]=[N-])[C@H](O)[C@H](CC1CCCCC1)NC(=O)[C@H](Cc1c[nH]cn1)NC(=O)[C@H](Cc1ccccc1)CS(=O)(=O)C(C)(C)C [Compound X-2b, (4S, 5R, 6S)-4-Azido-7-cyclohexyl-5-hydroxy-2-methyl-6-[N^α -[(S)-2-benzyl-3-(tert-butylsulfonyl)-pripionyl]-L-histidyl]aminoheptane]
Reduction in blood pressure (Cynomolgus monkeys): Reduction in blood pressure was seen within approximately 1 to 6 hours | IC50 (human kidney renin): 0.006 nM

CC(C)C[C@H](N=[N+]=[N-])[C@H](O)[C@H](CC(C)C)NC(=O)[C@H](Cc1c[nH]cn1)NC(=O)[C@H](Cc1ccccc1)OC(=O)N1CCOCC1 [III-6, (4S, 5R, 6S)-4-Azido-5-hydroxy-2,8-dimethyl-6-[N^α -(2S-(morpholino-N-carbonyloxy)-3-phenylpropionyl)-L-histidyl]aminononane]
IC50 (human kidney renin): 110 nM

CC(C)C[C@H](N=[N+]=[N-])[C@H](O)[C@H](CC1CCCCC1)NC(=O)[C@H](Cc1c[nH]cn1)NC(=O)[C@H](Cc1ccccc1)OC(=O)N1CCOCC1 [IV-7, (4S, 5R, 6S)-4-Azido-7-cyclohexyl-5-hydroxy-2-methyl-6-[N^α -(2S-(morpholino-N-carbonyloxy)-3-phenylpropionyl)-L-histidyl]aminoheptane]
Reduction in blood pressure (Cynomolgus monkeys): Reduction in blood pressure was seen within approximately 1 to 6 hours | IC50 (human kidney renin): 1.7 nM

CC(C)C[C@H](N=[N+]=[N-])[C@H](O)[C@H](CC1CCCCC1)NC(=O)[C@H](Cc1c[nH]cn1)NC(=O)[C@H](Cc1ccccc1)NC(=O)CC(C)(C)N [IX-6]
IC50 (human kidney renin): 5.4 nM

CC(C)C[C@H](N=[N+]=[N-])[C@H](O)[C@H](CC1CCCCC1)NC(=O)[C@H](Cc1c[nH]cn1)NC(=O)C(CC(=O)N1CCOCC1)Cc1ccccc1 (stereo partly drawn) [VI-6b, (4S, 5R, 6S)-4-Azido-6-[N^α -(2-benzyl-3-(morpholino-N-carbonyl)propionyl)-L-histidyl]amino-7-cyclohexyl-5-hydroxy-2-methylheptane]
IC50 (human kidney renin): 0.64 nM

CC(C)CC(N=[N+]=[N-])C(=O)C(CC1CCCCC1)NC(=O)[C@H](Cc1c[nH]cn1)NC(=O)[C@H](Cc1ccccc1)OC(=O)N1CCOCC1 (stereo partly drawn) [VII-2, 4-Azido-7-cyclohexyl-2-methyl-5-oxo-6-[N^α -(2S-(morpholino-N-carbonyloxy)-3-phenylpropionyl)-L-histidyl]amino heptane]
IC50 (human kidney renin): 5.1 nM

CC(C)C[C@H](N=[N+]=[N-])[C@H](O)[C@H](CC1CCCCC1)NC(=O)[C@H](Cc1c[nH]cn1)NC(=O)/C(=C/c1ccccc1)CC(=O)N1CCOCC1 [VIII-3, (4S, 5R, 6S)-4-Azido-7-cyclohexyl-5-hydroxy-2-methyl-6-[N^α -[(E)-2-[(4-morphorinylcarbonyl)-methyl]cinnamyl]-L-histidyl]aminoheptane]
IC50 (human kidney renin): 0.85 nM

COCCOCCN(C)C(=O)C[C@@H](Cc1ccccc1)C(=O)N[C@@H](Cc1c[nH]cn1)C(=O)N[C@@H](CC1CCCCC1)[C@@H](O)[C@H](CC(C)C)N=[N+]=[N-] [XI-2]
IC50 (human kidney renin): 0.008 nM
